Key:
REH [1] = assay: Cell viability (CellTiter Glo), library of cancer drugs, individual or sample compression with randomized (alphabetical) pools, REH; assay type: cell-based; settings: REH; for DRS: None (measured individually); for DRS from deconvolution: Samples, 7 Pick 3 randomized (alphabetical) sample pools
Protocol: (§1) Total cell viability was measured for each sample using an ATP-based luminescence assay (i.e., CellTiter Glo). Each cancer drug was then screened at multiple concentrations ranging from one nM to ten μM in order to generate a dose-response curve and calculate a DRS for each cancer cell line.
(§2) Each cancer drug was cultured with target cells individually. At the end of the screen, samples were either analyzed individually or compressed into pools for analysis. The library was compressed alphabetically into ten cohorts, each of which contained seven cancer drugs present in three out of the seven pools, as shown in Table VII. Said another way, the screening platform 210 generated a “7 pick 3” compressed library by assigning the cancer drugs among different pools. […] The library was also compressed into ten cohorts with pools designed based on information known about each cancer drug, as shown in Table VIII. After cell viability measurement and DRS calculation, the DRS of each cancer drug in the samples generated based on the pools were deconvoluted and compared to the DRS for each cancer drug measured individually.
(§3) In SUM-based deconvolution, an assumption of additivity is used to quantify the individual effects of each perturbation on each target. Additivity implies that each perturbation effect on each target is positively contributing to the overall effect measured for that pool. This is an accurate assumption for certain experiments, such as when targets or samples are compressed. When targets are pooled—or when samples containing different targets are pooled—the effect of each perturbation on each individual target is diluted. In other words, each perturbation has an isolated effect on a target in culture, and the sum total of the isolated effects are measured when pooled. Therefore, SUM-based deconvolution breaks down the sum total measured for a pool and assigns estimated fractional effects to each compressed perturbation or target in the pool. The screening platform 210 used SUM-based deconvolution for all target and sample compression experiments described above.

MOLT-4 [2] = assay: Cell viability (CellTiter Glo), library of cancer drugs, individual or sample compression with randomized (alphabetical) pools, MOLT-4; assay type: cell-based; settings: for DRS: MOLT-4, None (measured individually); for DRS from deconvolution: MOLT-4, Samples, 7 Pick 3 randomized (alphabetical) sample pools
Protocol: as §1, §2, §3

REH [3] = assay: Cell viability (CellTiter Glo), compressed perturbation pools with informed pool design, MAX-based deconvolution, REH; settings: REH; for DRS: None (measured individually), informed pool design table; for DRS from MAX-based deconvolution: Samples, 7 Pick 3 informed perturbation pools; for DRS, REH, MAX: compressed perturbation pools, informed pool design, MAX-based deconvolution;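 as to DRS from MAX-based deconvolution: higher DRS means a larger drug effect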
Protocol: as §1, §2
(§4) In parallel to the exemplary sample compression screen covered in Table VII, perturbations were compressed into pools and then screened. The pools were designed using drug class as a feature with two compression rules (or simply “rules”). The first rule required that drugs from the same class be separated into different cohorts (i.e., mutually exclusive groups of pools). […] A benefit of compressing perturbations is the ability to measure additive, antagonistic, and synergistic effects between drugs in the same pool. However, these effects can negatively impact deconvolution of individual drug effects. Therefore, combinations of drugs for which evidence of clinical toxicity exists can be assigned to different pools in accordance with an informed pooling operation. As new preclinical or clinical evidence of toxic combinations becomes available, the rules implemented by the screening platform 210—and more specifically, its algorithm for compressing members of a library—can be updated accordingly.
(§5) In MAX-based deconvolution, an assumption of neutrality between the compressed perturbations is made. In other words, the perturbation with the largest effect is assumed to be masking the effects, if any, of the other perturbations in the pool. For SUM- and MAX-based deconvolution, qualitative deconvolution is first performed to rank the perturbations in each pool based on size of expected effect. Qualitative deconvolution, as described above, ranks the perturbations in a pool from largest effect size to smallest effect size. The ranking is based on the overlap of each perturbation's unique subset of pools with the highest and lowest measured pools. The perturbation with the largest effect is expected to be present in the pools with the highest measured signal or corresponding metric (e.g., DRS), while the perturbation with the smallest effect is expected to be present in the pools with the lowest measured signal or corresponding metric (e.g., DRS).
(§6) For MAX-based deconvolution, the highest ranked perturbation in the rank order is first assigned an effect size based on the pool with the lowest measured signal or corresponding metric (e.g., DRS) that it is present in. Said another way, the screening platform 210 can identify the highest ranked perturbation in the rank order and then assign an effect size based on the measured signal or corresponding metric (e.g., DRS) of the “weakest” pool in which the highest ranked perturbation is included. The screening platform 210 can repeat this step for the next highest ranked perturbation, and so on until the measurements for each pool have been assigned to one of the perturbations. The effects for the remaining perturbations can be assigned a value of zero, since it is assumed that their effect is masked by the perturbation with the largest effect in each pool.

MOLT-4 [4] = assay: Cell viability (CellTiter Glo), compressed perturbation pools with informed pool design, MAX-based deconvolution, MOLT-4; settings: for DRS: MOLT-4, None (measured individually), informed pool design table; for DRS from MAX-based deconvolution: MOLT-4, Samples, 7 Pick 3 informed perturbation pools; for DRS, MOLT-4, MAX: compressed perturbation pools, informed pool design, MAX-based deconvolution;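 as to DRS from MAX-based deconvolution: higher DRS means a larger drug effect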
Protocol: as §1, §2, §4, §5, §6

REH [5] = assay: Cell viability (CellTiter Glo), compressed perturbation pools with informed pool design, SUM-based deconvolution, REH; design: scale not given here
Protocol: as §1, §2
(§7) In parallel to the exemplary sample compression screen covered in Table VII, perturbations were compressed into pools and then screened. The pools were designed using drug class as a feature with two compression rules (or simply “rules”). The first rule required that drugs from the same class be separated into different cohorts (i.e., mutually exclusive groups of pools). The second rule separated PI3K pathway inhibitors from MAPK pathway inhibitors, as inhibiting these pathways in parallel is known to be synergistic but has not been clinically effective due to dose-limiting toxicities. A benefit of compressing perturbations is the ability to measure additive, antagonistic, and synergistic effects between drugs in the same pool. However, these effects can negatively impact deconvolution of individual drug effects. Therefore, combinations of drugs for which evidence of clinical toxicity exists can be assigned to different pools in accordance with an informed pooling operation. As new preclinical or clinical evidence of toxic combinations becomes available, the rules implemented by the screening platform 210—and more specifically, its algorithm for compressing members of a library—can be updated accordingly.
as §3
(§8) As mentioned above, SUM-based deconvolution uses the overlapping pool design to identify relative relationships and ranges for the individual effects of each perturbation. When the overlapping pool design is not sufficient to solve for the polynomials representing perturbation effects, an anchor perturbation can be identified by the screening platform 210 based on rank order and assigned an effect size of zero. The anchor perturbation may be the lowest ranked perturbation in the rank order. This then enables the screening platform 210 to solve for the polynomials for the remaining perturbations.

MOLT-4 [6] = assay: Cell viability (CellTiter Glo), compressed perturbation pools with informed pool design, SUM-based deconvolution, MOLT-4; design: scale not given here
Protocol: as §1, §2, §7, §3, §8

Cc1ccc(NC(=O)c2ccc(CN3CCN(C)CC3)cc2)cc1Nc1nccc(-c2cccnc2)n1 [Imatinib] gave a DRS (REH [1]) of 1.78, a DRS from deconvolution (REH [1]) of 1.90 and a DRS (MOLT-4 [2]) of 0.88. For the same compound, the DRS from deconvolution (MOLT-4 [2]) was 0.89, the DRS (REH [3]) was 15.29 and the “DRS from MAX-based deconvolution” value (REH [3]) was 18.48. The “DRS, REH, MAX” value (REH [3]) was 0.00, the DRS (MOLT-4 [4]) was 13.99 and the “DRS from MAX-based deconvolution” value (MOLT-4 [4]) was 15.14. The “DRS, MOLT-4, MAX” value (MOLT-4 [4]) was 0.00, the “DRS, REH, SUM” value (REH [5]) was 1.81 and the “DRS, MOLT-4, SUM” value (MOLT-4 [6]) was 1.34.

With NC(=O)c1cccc2cn(-c3ccc([C@@H]4CCCNC4)cc3)nc12 [Niraparib] the DRS (REH [1]) was 0.70, the DRS from deconvolution (REH [1]) was 0.59 and the DRS (MOLT-4 [2]) was 4.30. The DRS from deconvolution (MOLT-4 [2]) was 4.85, the DRS (REH [3]) was 4.42 and the “DRS from MAX-based deconvolution” value (REH [3]) was 5.23. The “DRS, REH, MAX” value (REH [3]) was 0.00, the DRS (MOLT-4 [4]) was 6.12 and the “DRS from MAX-based deconvolution” value (MOLT-4 [4]) was 8.06. The “DRS, MOLT-4, MAX” value (MOLT-4 [4]) was 0.00, the “DRS, REH, SUM” value (REH [5]) was 0.00 and the “DRS, MOLT-4, SUM” value (MOLT-4 [6]) was 0.00.

With Cc1ccc(Nc2nccc(N(C)c3ccc4c(C)n(C)nc4c3)n2)cc1S(N)(=O)=O [Pazopanib] the DRS (REH [1]) was 5.88, the DRS from deconvolution (REH [1]) was 5.90 and the DRS (MOLT-4 [2]) was 0.68. For the same compound, the DRS from deconvolution (MOLT-4 [2]) was 0.00, the DRS (REH [3]) was 3.93 and the “DRS from MAX-based deconvolution” value (REH [3]) was 4.01. The “DRS, REH, MAX” value (REH [3]) was 7.06, the DRS (MOLT-4 [4]) was 3.50 and the “DRS from MAX-based deconvolution” value (MOLT-4 [4]) was 0.00. For the same compound, the “DRS, MOLT-4, MAX” value (MOLT-4 [4]) was 5.39, the “DRS, REH, SUM” value (REH [5]) was 8.02 and the “DRS, MOLT-4, SUM” value (MOLT-4 [6]) was 2.41.

CC[C@H](Nc1ncnc2[nH]cnc12)c1nc2cccc(F)c2c(=O)n1-c1ccccc1 [Idelalisib] gave a DRS (REH [1]) of 0.91, a DRS from deconvolution (REH [1]) of 0.85 and a DRS (MOLT-4 [2]) of 0.80. For the same compound, the DRS from deconvolution (MOLT-4 [2]) was 0.69, the DRS (REH [3]) was 0.30 and the “DRS from MAX-based deconvolution” value (REH [3]) was 0.74. The “DRS, REH, MAX” value (REH [3]) was 0.00, the DRS (MOLT-4 [4]) was 0.00 and the “DRS from MAX-based deconvolution” value (MOLT-4 [4]) was 0.00. The “DRS, MOLT-4, MAX” value (MOLT-4 [4]) was 0.00, the “DRS, REH, SUM” value (REH [5]) was 0.00 and the “DRS, MOLT-4, SUM” value (MOLT-4 [6]) was 0.54.

Compound CC(C)C[C@H](NC(=O)[C@H](Cc1ccccc1)NC(=O)c1cnccn1)B(O)O [Bortezomib] has a DRS (REH [1]) of 27.70, a DRS from deconvolution (REH [1]) of 28.16 and a DRS (MOLT-4 [2]) of 25.00. The DRS from deconvolution (MOLT-4 [2]) was 25.41, the DRS (REH [3]) was 2.40 and the “DRS from MAX-based deconvolution” value (REH [3]) was 2.90. For the same compound, the “top hit of cohort (deconvoluted effect size)” value (REH [3]; informed perturbation pools) was “top hit”, the “DRS, REH, MAX” value (REH [3]) was 31.61 and the “top hit of cohort (deconvoluted effect size)” value (MOLT-4 [4]; MOLT, informed perturbation pools) was “top hit”. For the same compound, the DRS (MOLT-4 [4]) was 2.50, the “DRS from MAX-based deconvolution” value (MOLT-4 [4]) was 2.76 and the “DRS, MOLT-4, MAX” value (MOLT-4 [4]) was 28.24. The “DRS, REH, SUM” value (REH [5]) was 22.86 and the “DRS, MOLT-4, SUM” value (MOLT-4 [6]) was 23.95.

For C[C@]12CC[C@@H]3c4ccc(O)cc4C[C@@H](CCCCCCCCC[S+]([O-])CCCC(F)(F)C(F)(F)F)[C@H]3[C@@H]1CC[C@@H]2O (stereo partly shown) [Fulvestrant], the DRS (REH [1]) was 0.21, the DRS from deconvolution (REH [1]) was 0.00 and the DRS (MOLT-4 [2]) was 0.01. For the same compound, the DRS from deconvolution (MOLT-4 [2]) was 0.00, the DRS (REH [3]) was 0.00 and the “DRS from MAX-based deconvolution” value (REH [3]) was 0.00. The DRS (MOLT-4 [4]) was 0.00 and the “DRS from MAX-based deconvolution” value (MOLT-4 [4]) was 0.00.

— US20260378560A1, “APPROACHES TO DESIGNING AND PERFORMING COMPRESSED BIOLOGICAL EXPERIMENTS AND SYSTEMS FOR IMPLEMENTING THE SAME” (EXVIVO LABS INC., priority 2023, published 2026)
